Source: publication PMC9033141, “Beta and Gamma Amino Acid-Substituted Benzenesulfonamides as Inhibitors of Human Carbonic Anhydrases” (Pharmaceuticals, 2022)
pKd: −log10 of the molar value. Values joined by “and” are separate entries in the source; they are usually repeats but may differ in a detail not shown here. Identical values can stand only once. Like-named read-outs stand apart in the source and are kept apart here.

Tests used:
[1] = biological target: T1, CAIX (Homo sapiens, UniProt Q16790); experiment: biochemical; assay type: binding; conditions: FTSA
T1 construct: made in house
Method: (§1) Human CA isozymes were expressed in E. coli (CAI, II, III, IV, VA, VB, VII, XII, XIII, XIV) or mammalian cells (CAVI and CAIX), chromatographically purified following the published protocols [47], and stored at −80 °C. The protein concentration was determined by UV absorption at 280 nm using Beer–Lambert law.
(§2) The QIAGEN Rotor-Gene Q was used to carry out the experiments, with a blue channel used for excitation (365 nm) and detection (460 nm). FTSA in this case relies on an extrinsic probe, 8-anilino-1-naphthalenesulfonate (ANS), to detect the fluorescence increase during protein denaturation, from which protein melting temperature (Tm) can be determined. […] The observed affinity of ligands for CAs was determined by plotting the Tm as a function of ligand concentration and then fitting a curve as described previously [48]. […] Samples were heated from 25 °C to 99 °C at the speed of 1 °C/min.
(§3) The intrinsic thermodynamic parameters were calculated as described in [40]. The intrinsic reaction of inhibitor binding to CA is shown in Equation (1).
(§4) When calculating Kd_int values, these protein and ligand fractions from Equation (1) have to be accounted for (Equations (2) and (3)). The intrinsic dissociation constant is calculated by multiplying Kd_obs value by the corresponding fractions of protein and ligand (Equation (4)). (2) fRSO2NH^−=10^pH−pKa_RSO2NH2/1+10^pH−pKa_RSO2NH2 (3) fCAZnH2O=1−10^pH−pKa_CAZnH2O/1+10^pH−pKa_CAZnH2O (4) Kd_int=Kd_obs×fRSO2NH^−×fCAZnH2O (5) ΔGint0=RTlnKd_int
(§5) The intrinsic standard Gibbs energy changes upon binding were calculated using Equation (5). Here, R—universal ideal gas constant (8.3144 J/mol·K), T—absolute temperature (310.15 K).

[2] = biological target: T2, CAXII (Homo sapiens, UniProt O43570); experiment: biochemical; assay type: binding; conditions: FTSA
T2 construct: made in house; host or cells: E. coli

[3] = biological target: T3, CAII (Homo sapiens, UniProt P00918); experiment: biochemical; assay type: binding; conditions: FTSA;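 also: recombinant human CAII, thermal shift with ANS dye fluorescence, Kd_obs from fitting melting temperature versus ligand concentration, intrinsic values corrected for deprotonated sulfonamide and Zn-bound water fractions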
T3 construct: made in house; host or cells: E. coli
Method: as §1, §2, §3, §4, §5

[4] = biological target: T4, CAI (Homo sapiens, UniProt P00915); experiment: biochemical; assay type: binding; conditions: FTSA
T4 construct: made in house; host or cells: E. coli
Method: as §1, §2, §3, §4, §5

[5] = biological target: CAXIII (Homo sapiens, UniProt Q8N1Q1); experiment: biochemical; conditions: FTSA;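 also: recombinant human CAXIII melting temperature tracked by ANS fluorescence in thermal shift assay, Tm fitted against ligand concentration, intrinsic value corrects Kd for deprotonated sulfonamide and Zn-bound water fractions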
Method: as §1, §2, §3, §4, §5

[6] = pH 7.0, 37 °C, read-out: Observed Dissociation Constant (Kd_obs), CAIX
[7] = pH 7.0, 37 °C, read-out: Observed Dissociation Constant (Kd_obs), CAXII
[8] = pH 7.0, 37 °C, read-out: Observed Dissociation Constant (Kd_obs), CAII
[9] = pH 7.0, 37 °C, read-out: Observed Dissociation Constant (Kd_obs), CAI
[10] = Observed Dissociation Constant (Kd_obs), pH 7.0, 37 °C
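For Observed Dissociation Constant (Kd obs), CAXII in this document: recombinant CAXII made in E. coli, ANS-fluorescence thermal shift with affinity fitted from Tm versus ligand concentration, intrinsic energy from Kd_obs corrected for deprotonated sulfonamide and Zn-water fractions.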

CAXIII, sequence (Q8N1Q1 whole entry): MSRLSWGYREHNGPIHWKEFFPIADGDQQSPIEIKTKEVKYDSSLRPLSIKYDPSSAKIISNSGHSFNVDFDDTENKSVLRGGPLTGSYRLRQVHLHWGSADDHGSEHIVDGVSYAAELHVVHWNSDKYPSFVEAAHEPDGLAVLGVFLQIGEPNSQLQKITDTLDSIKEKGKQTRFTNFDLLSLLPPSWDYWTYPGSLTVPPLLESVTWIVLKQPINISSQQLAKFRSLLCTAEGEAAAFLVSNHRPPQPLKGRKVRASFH
T4 sequence (P00915 whole entry): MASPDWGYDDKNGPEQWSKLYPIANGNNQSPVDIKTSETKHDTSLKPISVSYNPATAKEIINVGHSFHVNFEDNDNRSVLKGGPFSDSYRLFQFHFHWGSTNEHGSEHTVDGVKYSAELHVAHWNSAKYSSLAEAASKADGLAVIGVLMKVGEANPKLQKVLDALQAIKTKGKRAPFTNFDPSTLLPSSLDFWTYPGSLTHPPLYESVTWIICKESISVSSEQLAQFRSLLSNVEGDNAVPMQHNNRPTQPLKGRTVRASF
T2 sequence (O43570 25-354): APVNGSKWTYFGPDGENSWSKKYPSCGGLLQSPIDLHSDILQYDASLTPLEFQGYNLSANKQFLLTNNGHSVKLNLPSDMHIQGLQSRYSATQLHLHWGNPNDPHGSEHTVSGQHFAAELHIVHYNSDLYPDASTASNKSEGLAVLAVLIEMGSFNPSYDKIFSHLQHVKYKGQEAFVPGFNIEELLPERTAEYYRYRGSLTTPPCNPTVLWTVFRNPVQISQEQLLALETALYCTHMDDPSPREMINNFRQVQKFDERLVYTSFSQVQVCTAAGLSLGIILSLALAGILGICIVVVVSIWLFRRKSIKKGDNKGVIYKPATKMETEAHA

## NNC(=O)CC(CNc1ccc(S(N)(=O)=O)cc1)C(=O)NN (stereo not shown) [Compound 2a, 4-((2-(Hydrazinecarbonyl)-4-hydrazineyl-4-oxobutyl)amino)benzenesulfonamide]
[1]; [6]
  pKd: 5.40
[1]; read-out: Kd_obs, CAIX
  pKd: 3.89 to 6.08
[2]; [7]
  pKd: 4.15
[2]; read-out: Kd_obs, CAXII
  pKd: 3.89 to 6.08
[3]; [8]
  pKd: 4.85
[3]; read-out: Kd_obs, CAII
  pKd: 3.89 to 6.08
other
  melting point: 164 to 165 °C
[4]; [9]
  pKd: 4.11
[4]; read-out: Kd_obs, CAI
  pKd: 3.89 to 6.08
[5]; Kd_obs
  pKd: 3.89 to 6.08
[5]; [10]
  pKd: 3.89

## NNC(=O)CC(CNc1ccc(S(N)(=O)=O)cc1Cl)C(=O)NN (stereo not shown) [Compound 2b, 3-Chloro-4-((2-(hydrazinecarbonyl)-4-hydrazineyl-4-oxobutyl)amino)benzenesulfonamide]
[1]; [6]
  pKd: 6.08
[1]; read-out: Kd_obs, CAIX
  pKd: 3.89 to 6.08 and 6.08
[2]; [7]
  pKd: 4.85
[2]; read-out: Kd_obs, CAXII
  pKd: 3.89 to 6.08
[3]; [8]
  pKd: 5.89
[3]; read-out: Kd_obs, CAII
  pKd: 3.89 to 6.08
[4]; [9]
  pKd: 5.17
[4]; read-out: Kd_obs, CAI
  pKd: 3.89 to 6.08
[5]; Kd_obs
  pKd: 3.89 to 6.08
[5]; [10]
  pKd: 5.17

## CC(C)=NNC(=O)CC(CNc1ccc(S(N)(=O)=O)cc1)C(=O)NN=C(C)C (stereo not shown) [Compound 3a, 4-((4-Oxo-2-(2-(propan-2-ylidene)hydrazine-1-carbonyl)-4-(2-(propan-2-ylidene)hydrazineyl)butyl)amino)benzenesulfonamide]
[1]; [6]
  pKd: 5.17
[2]; [7]
  pKd: 3.96
[3]; [8]
  pKd: 4.89
[4]; [9]
  pKd: 3.77
[5]; [10]
  pKd: 4.00

## CC(C)=NNC(=O)CC(CNc1ccc(S(N)(=O)=O)cc1Cl)C(=O)NN=C(C)C (stereo not shown) [Compound 3b, 3-Chloro-4-((4-oxo-2-(2-(propan-2-ylidene)hydrazine-1-carbonyl)-4-(2-(propan-2-ylidene)hydrazineyl)butyl)amino)benzenesulfonamide]
[1]; [6]
  pKd: 6.17
[2]; [7]
  pKd: 4.85
[3]; [8]
  pKd: 5.74
[4]; [9]
  pKd: 5.00
[5]; [10]
  pKd: 5.17

## CCC(C)=NN1C(=O)CC(CNc2ccc(S(N)(=O)=O)cc2)C1=O (stereo not shown) [Compound 4a, 4-(((1-(Butan-2-ylideneamino)-2,5-dioxopyrrolidin-3-yl)methyl)amino)benzenesulfonamide]
[1]; [6]
  pKd: 5.70
[2]; [7]
  pKd: 4.74
[3]; [8]
  pKd: 4.40
other
  melting point: 117 to 118 °C
[4]; [9]
  pKd: 4.74
[5]; [10]
  pKd: 4.70

## CCC(C)=NN1C(=O)CC(CNc2ccc(S(N)(=O)=O)cc2Cl)C1=O (stereo not shown) [Compound 4b, 4-(((1-(Butan-2-ylideneamino)-2,5-dioxopyrrolidin-3-yl)methyl)amino)-3-chlorobenzenesulfonamide]
[1]; [6]
  pKd: 6.60
[2]; [7]
  pKd: 5.40
[3]; [8]
  pKd: 6.48
other
  melting point: 92 to 93 °C
[4]; [9]
  pKd: 5.54
[5]; [10]
  pKd: 5.89

## CC(=NNC(=O)CC(CNc1ccc(S(N)(=O)=O)cc1)C(=O)NN=C(C)c1ccccc1)c1ccccc1 (stereo not shown) [Compound 5a, 4-((4-Oxo-2-(2-(1-phenylethylidene)hydrazine-1-carbonyl)-4-(2-(1-phenylethylidene)hydrazineyl)butyl)amino)benzenesulfonamide]
[1]; [6]
  pKd: 6.23
[2]; [7]
  pKd: 6.30
[3]; [8]
  pKd: 5.89
other
  melting point: 162 to 163 °C
[4]; [9]
  pKd: 5.08
[5]; [10]
  pKd: 5.30

## CC(=NNC(=O)CC(CNc1ccc(S(N)(=O)=O)cc1Cl)C(=O)NN=C(C)c1ccccc1)c1ccccc1 (stereo not shown) [Compound 5b, 3-Chloro-4-((4-oxo-2-(2-(1-phenylethylidene)hydrazine-1-carbonyl)-4-(2-(1-phenylethylidene)hydrazineyl)butyl)amino)benzenesulfonamide]
[1]; [6]
  pKd: 6.74
[2]; [7]
  pKd: 5.17
[3]; [8]
  pKd: 6.60
other
  melting point: 158 to 159 °C
[4]; [9]
  pKd: 5.40
[5]; [10]
  pKd: 6.40

## NS(=O)(=O)c1ccc(NCC(CC(=O)NN=Cc2ccccc2)C(=O)NN=Cc2ccccc2)cc1 (stereo not shown) [Compound 6a, 4-((2-(2-(Benzylidene)hydrazine-1-carbonyl)-4-(2-(benzylidene)hydrazineyl)-4-oxobutyl)amino)benzenesulfonamide]
[1]; [6]
  pKd: 6.25
[2]; [7]
  pKd: 4.60
[3]; [8]
  pKd: 5.74
other
  melting point: 208 to 209 °C
[4]; [9]
  pKd: 4.85
[5]; [10]
  pKd: 5.11

## NS(=O)(=O)c1ccc(NCC(CC(=O)NN=Cc2ccccc2O)C(=O)NN=Cc2ccccc2O)cc1 (stereo not shown) [Compound 7a, 4-((2-(2-(2-Hydroxybenzylidene)hydrazine-1-carbonyl)-4-(2-(2-hydroxybenzylidene)hydrazineyl)-4-oxobutyl)amino)benzenesulfonamide]
[1]; [6]
  pKd: 6.30
[2]; [7]
  pKd: 4.70
[3]; [8]
  pKd: 5.70
other
  melting point: 177 to 178 °C
[4]; [9]
  pKd: 5.17
[5]; [10]
  pKd: 5.00

## NS(=O)(=O)c1ccc(NCC(CC(=O)NN=Cc2ccccc2O)C(=O)NN=Cc2ccccc2O)c(Cl)c1 (stereo not shown) [Compound 7b, 3-Chloro-4-((2-(2-(2-hydroxybenzylidene)hydrazine-1-carbonyl)-4-(2-(2-hydroxybenzylidene)hydrazineyl)-4-oxobutyl)amino)benzenesulfonamide]
[1]; [6]
  pKd: 7.17
[2]; [7]
  pKd: 5.30
[3]; [8]
  pKd: 6.77
other
  melting point: 204 to 205 °C
[4]; [9]
  pKd: 6.00
[5]; [10]
  pKd: 6.77

## NS(=O)(=O)c1ccc(NCC(CC(=O)NN=Cc2cccc(O)c2)C(=O)NN=Cc2cccc(O)c2)cc1 (stereo not shown) [Compound 8a, 4-((2-(2-(3-Hydroxybenzylidene)hydrazine-1-carbonyl)-4-(2-(3-hydroxybenzylidene)hydrazineyl)-4-oxobutyl)amino)benzenesulfonamide]
[1]; [6]
  pKd: 6.17
[2]; [7]
  pKd: 4.48
[3]; [8]
  pKd: 5.70
other
  melting point: 192 to 193 °C
[4]; [9]
  pKd: 5.00
[5]; [10]
  pKd: 5.30

## NS(=O)(=O)c1ccc(NCC(CC(=O)NN=Cc2cccc(O)c2)C(=O)NN=Cc2cccc(O)c2)c(Cl)c1 (stereo not shown) [Compound 8b, 3-Chloro-4-((2-(2-(3-hydroxybenzylidene)hydrazine-1-carbonyl)-4-(2-(3-hydroxybenzylidene)hydrazineyl)-4-oxobutyl)amino)benzenesulfonamide]
[1]; [6]
  pKd: 7.00
[2]; [7]
  pKd: 4.70
[3]; [8]
  pKd: 6.60
other
  melting point: 119 to 120 °C
[4]; [9]
  pKd: 6.00
[5]; [10]
  pKd: 6.70

## NS(=O)(=O)c1ccc(NCC(CC(=O)NN=Cc2ccc(O)cc2)C(=O)NN=Cc2ccc(O)cc2)cc1 (stereo not shown) [Compound 9a, 4-((2-(2-(4-Hydroxybenzylidene)hydrazine-1-carbonyl)-4-(2-(4-hydroxybenzylidene)hydrazineyl)-4-oxobutyl)amino)benzenesulfonamide]
[1]; [6]
  pKd: 6.30
[2]; [7]
  pKd: 4.60
[3]; [8]
  pKd: 5.89
other
  melting point: 186 to 187 °C
[4]; [9]
  pKd: 5.23
[5]; [10]
  pKd: 5.37

## NS(=O)(=O)c1ccc(NCC(CC(=O)NN=Cc2ccccc2Cl)C(=O)NN=Cc2ccccc2Cl)cc1 (stereo not shown) [Compound 10a, 4-((2-(2-(2-Chlorobenzylidene)hydrazine-1-carbonyl)-4-(2-(2-chlorobenzylidene)hydrazineyl)-4-oxobutyl)amino)benzenesulfonamide]
[1]; [6]
  pKd: 6.30
[2]; [7]
  pKd: 4.30
[3]; [8]
  pKd: 5.60
other
  melting point: 174 to 175 °C
[4]; [9]
  pKd: 4.77
[5]; [10]
  pKd: 5.77

## NS(=O)(=O)c1ccc(NCC(CC(=O)NN=Cc2ccccc2Cl)C(=O)NN=Cc2ccccc2Cl)c(Cl)c1 (stereo not shown) [Compound 10b, 3-Chloro-4-((2-(2-(2-chlorobenzylidene)hydrazine-1-carbonyl)-4-(2-(2-chlorobenzylidene)hydrazineyl)-4-oxobutyl)amino)benzenesulfonamide]
[1]; [6]
  pKd: 6.89
[2]; [7]
  pKd: 4.30
[3]; [8]
  pKd: 6.48
other
  melting point: 203 to 204 °C
[4]; [9]
  pKd: 5.77
[5]; [10]
  pKd: 6.89
